{"source": "ChEMBL document CHEMBL4831546", "about": "“Discovery of a Potent and Orally Bioavailable Hypoxia-Inducible Factor 2α (HIF-2α) Agonist and Its Synergistic Therapy with Prolyl Hydroxylase Inhibitors for the Treatment of Renal Anemia” (J Med Chem, 2021)", "target": "Endothelial PAS domain-containing protein 1 (Homo sapiens, UniProt Q99814)", "sequence (Q99814 whole entry, the tested form may be a part)": "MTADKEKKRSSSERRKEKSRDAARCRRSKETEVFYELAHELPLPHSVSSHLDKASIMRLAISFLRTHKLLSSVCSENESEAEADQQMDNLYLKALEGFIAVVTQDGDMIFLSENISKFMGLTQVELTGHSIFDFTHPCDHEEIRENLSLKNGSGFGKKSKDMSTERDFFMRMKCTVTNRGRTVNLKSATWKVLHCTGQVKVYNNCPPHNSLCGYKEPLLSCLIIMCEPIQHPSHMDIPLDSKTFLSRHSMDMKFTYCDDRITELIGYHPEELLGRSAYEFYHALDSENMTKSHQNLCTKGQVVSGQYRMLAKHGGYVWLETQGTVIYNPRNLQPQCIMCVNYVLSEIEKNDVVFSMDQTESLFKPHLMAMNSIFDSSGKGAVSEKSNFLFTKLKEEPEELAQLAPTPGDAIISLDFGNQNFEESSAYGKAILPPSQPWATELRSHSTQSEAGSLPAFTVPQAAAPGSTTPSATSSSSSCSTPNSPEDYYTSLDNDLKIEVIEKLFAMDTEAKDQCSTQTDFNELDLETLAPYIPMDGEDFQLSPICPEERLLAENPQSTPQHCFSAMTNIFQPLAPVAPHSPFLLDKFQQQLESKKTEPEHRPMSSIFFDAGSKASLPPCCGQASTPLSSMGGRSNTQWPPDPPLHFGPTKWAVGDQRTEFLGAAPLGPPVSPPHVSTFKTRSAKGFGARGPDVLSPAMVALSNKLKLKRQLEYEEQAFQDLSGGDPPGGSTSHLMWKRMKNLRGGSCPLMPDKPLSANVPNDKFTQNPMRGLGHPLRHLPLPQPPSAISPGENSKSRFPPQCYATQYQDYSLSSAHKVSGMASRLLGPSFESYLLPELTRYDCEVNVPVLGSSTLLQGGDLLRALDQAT", "note": "pEC50: −log10 of the molar value.", "description": "Agonist activity at HIF-2alpha (unknown origin) expressed in 786-O cells measured after 24 hrs by HRE based luciferase reporter gene assay"}
{"smiles": "Clc1cc(Cl)cc(Nc2nsc3ccccc23)c1", "values": [{"measurement": "pEC50", "result": 5.53}]}
